The results in this text go back to ChEMBL document CHEMBL5696442, “Discovery of type II inhibitors of TGFβ-activated kinase 1 (TAK1) and mitogen-activated protein kinase kinase kinase kinase 2 (MAP4K2)” (J Med Chem, 2015).

The target in assay [1] is Serine/threonine-protein kinase 4 (Homo sapiens) (UniProt Q13043). The assay is described as follows: Inhibition of MST1 Lys2 labeling site harbouring DIKAGNILLNTEGHAK in human A-375 cells at 0.5 uM by KiNativ Profiling analysis relative to control.
Sequence of Serine/threonine-protein kinase 4 (Homo sapiens) (Q13043 whole entry, looked up): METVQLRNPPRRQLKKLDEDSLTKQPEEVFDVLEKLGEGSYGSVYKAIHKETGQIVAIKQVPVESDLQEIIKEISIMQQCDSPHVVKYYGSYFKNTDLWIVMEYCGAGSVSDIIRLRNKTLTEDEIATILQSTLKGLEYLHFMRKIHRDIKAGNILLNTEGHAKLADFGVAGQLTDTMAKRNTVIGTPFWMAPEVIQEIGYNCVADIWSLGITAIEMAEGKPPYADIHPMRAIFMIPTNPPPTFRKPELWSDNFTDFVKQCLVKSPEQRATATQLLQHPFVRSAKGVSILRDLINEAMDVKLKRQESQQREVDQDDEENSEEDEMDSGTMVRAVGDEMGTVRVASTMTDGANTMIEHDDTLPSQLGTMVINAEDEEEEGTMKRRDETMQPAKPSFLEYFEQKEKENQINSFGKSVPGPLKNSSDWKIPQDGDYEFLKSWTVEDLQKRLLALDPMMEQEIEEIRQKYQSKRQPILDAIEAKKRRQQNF
The target in assay [2] is Serine/threonine-protein kinase tousled-like 2 (Homo sapiens) (UniProt Q86UE8). The assay can be described thus: Inhibition of TLK2 (unknown origin) at 1 uM by Ambit Kinomescan binding assay relative to control.
Sequence of Serine/threonine-protein kinase tousled-like 2 (Homo sapiens) (Q86UE8 whole entry, looked up): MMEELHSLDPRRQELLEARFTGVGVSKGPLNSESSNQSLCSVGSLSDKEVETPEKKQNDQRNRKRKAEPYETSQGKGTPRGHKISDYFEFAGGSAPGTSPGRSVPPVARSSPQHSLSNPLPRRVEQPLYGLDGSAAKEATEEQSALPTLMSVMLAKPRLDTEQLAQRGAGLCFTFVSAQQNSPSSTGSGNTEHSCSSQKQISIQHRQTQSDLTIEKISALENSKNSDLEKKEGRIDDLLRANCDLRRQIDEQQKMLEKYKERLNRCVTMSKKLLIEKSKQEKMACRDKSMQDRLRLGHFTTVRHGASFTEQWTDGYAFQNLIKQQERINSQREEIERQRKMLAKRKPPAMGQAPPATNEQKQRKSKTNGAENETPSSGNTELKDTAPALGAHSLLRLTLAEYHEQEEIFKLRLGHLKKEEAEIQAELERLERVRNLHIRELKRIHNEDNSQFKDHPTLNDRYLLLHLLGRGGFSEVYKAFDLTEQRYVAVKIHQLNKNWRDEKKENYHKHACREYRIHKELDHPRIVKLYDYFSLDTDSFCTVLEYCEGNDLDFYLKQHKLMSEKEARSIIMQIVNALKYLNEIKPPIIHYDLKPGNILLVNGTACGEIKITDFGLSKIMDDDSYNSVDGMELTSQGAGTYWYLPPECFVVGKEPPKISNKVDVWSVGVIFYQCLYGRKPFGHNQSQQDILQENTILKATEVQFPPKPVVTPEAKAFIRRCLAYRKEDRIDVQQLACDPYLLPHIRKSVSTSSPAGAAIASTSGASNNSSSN
Assay [3] deals with Activin receptor type-2A (Homo sapiens) (UniProt P27037). The assay can be described thus: Inhibition of ACVR2A (unknown origin) at 1 uM by Ambit Kinomescan binding assay relative to control.
Sequence of Activin receptor type-2A (Homo sapiens) (P27037 whole entry): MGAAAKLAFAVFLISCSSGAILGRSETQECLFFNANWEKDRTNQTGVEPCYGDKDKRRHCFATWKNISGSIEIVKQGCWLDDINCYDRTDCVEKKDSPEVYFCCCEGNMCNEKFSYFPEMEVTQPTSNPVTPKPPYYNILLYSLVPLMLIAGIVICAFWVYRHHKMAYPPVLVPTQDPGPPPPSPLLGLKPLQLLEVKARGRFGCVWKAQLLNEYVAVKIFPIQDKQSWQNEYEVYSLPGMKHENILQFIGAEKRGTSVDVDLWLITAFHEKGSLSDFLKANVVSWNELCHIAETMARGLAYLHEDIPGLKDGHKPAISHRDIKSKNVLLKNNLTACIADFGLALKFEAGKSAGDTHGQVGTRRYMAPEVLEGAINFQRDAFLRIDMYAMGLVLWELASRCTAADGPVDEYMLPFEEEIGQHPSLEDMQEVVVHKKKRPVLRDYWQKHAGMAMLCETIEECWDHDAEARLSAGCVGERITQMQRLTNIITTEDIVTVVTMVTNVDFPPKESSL
Assay [4] addresses T1, Dual specificity mitogen-activated protein kinase kinase 6 (Homo sapiens) (UniProt P52564).
T1 sequence (whole entry): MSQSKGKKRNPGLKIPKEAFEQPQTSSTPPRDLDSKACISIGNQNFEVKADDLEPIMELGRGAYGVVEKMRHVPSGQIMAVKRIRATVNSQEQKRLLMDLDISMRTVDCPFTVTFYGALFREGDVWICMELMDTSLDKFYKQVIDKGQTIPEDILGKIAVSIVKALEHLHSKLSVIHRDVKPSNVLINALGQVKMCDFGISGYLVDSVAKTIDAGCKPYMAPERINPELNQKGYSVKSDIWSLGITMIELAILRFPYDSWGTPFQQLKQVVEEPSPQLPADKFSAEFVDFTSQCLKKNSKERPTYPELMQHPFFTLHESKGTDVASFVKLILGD
The assay can be described thus: Inhibition of MAP2K6 Lys2 labeling site in human A-375 cells at 0.5 uM by KiNativ Profiling analysis relative to control. Format: cell-based.

Assay [5] addresses Homeodomain-interacting protein kinase 1 (Homo sapiens) (UniProt Q86Z02). The assay can be described thus: Inhibition of HIPK1 (unknown origin) at 1 uM by Ambit Kinomescan binding assay relative to control; values are per cent of control.
Assay [6] addresses T2, Serine/threonine-protein kinase LATS1 (Homo sapiens) (UniProt O95835).
T2 sequence (whole entry): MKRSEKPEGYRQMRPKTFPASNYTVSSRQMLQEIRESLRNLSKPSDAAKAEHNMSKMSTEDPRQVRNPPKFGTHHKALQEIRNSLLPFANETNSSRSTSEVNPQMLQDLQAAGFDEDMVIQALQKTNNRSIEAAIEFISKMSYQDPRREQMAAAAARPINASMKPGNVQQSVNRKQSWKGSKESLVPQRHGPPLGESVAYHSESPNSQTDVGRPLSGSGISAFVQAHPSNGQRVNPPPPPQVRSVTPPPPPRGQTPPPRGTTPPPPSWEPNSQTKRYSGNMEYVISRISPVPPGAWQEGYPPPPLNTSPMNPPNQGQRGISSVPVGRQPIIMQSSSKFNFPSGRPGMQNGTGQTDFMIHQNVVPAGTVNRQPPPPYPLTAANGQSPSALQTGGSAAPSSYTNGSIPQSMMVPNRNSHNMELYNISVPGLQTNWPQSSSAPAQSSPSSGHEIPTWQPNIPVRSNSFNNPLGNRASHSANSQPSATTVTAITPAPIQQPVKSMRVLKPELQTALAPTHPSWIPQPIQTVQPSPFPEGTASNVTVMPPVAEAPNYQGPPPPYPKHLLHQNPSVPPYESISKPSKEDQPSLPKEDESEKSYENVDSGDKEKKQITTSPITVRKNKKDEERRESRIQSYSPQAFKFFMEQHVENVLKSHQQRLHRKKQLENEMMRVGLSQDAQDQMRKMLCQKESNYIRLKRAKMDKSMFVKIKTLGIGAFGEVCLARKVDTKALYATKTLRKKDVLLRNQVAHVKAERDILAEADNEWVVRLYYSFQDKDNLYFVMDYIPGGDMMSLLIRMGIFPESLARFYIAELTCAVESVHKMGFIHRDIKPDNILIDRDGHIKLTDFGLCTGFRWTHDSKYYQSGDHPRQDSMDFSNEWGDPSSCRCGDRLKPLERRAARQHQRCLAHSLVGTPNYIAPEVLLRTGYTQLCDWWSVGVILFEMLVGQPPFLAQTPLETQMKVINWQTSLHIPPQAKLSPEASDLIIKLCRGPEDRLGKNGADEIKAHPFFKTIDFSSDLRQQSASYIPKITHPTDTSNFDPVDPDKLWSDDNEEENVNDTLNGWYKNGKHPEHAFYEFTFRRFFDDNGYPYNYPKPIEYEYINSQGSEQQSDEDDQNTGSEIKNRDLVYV
The assay is described as follows: Inhibition of LATS1 (unknown origin) at 10 uM by Ambit Kinomescan binding assay.

A short description of assay [7]: Inhibition of NEK6/7 K2 labeling site harbouring VMHRDIKPANVFITATGVVK in human Huh-7 cells at 1 uM by KiNativ Profiling analysis relative to control. The settings on record: condition cancer.
Assay [8] concerns the target Casein kinase I isoform epsilon (Homo sapiens) (UniProt P49674). The assay can be described thus: Inhibition of CK1epsilon Lys2 labeling site in human A-375 cells at 0.5 uM by KiNativ Profiling analysis relative to control. The class given is cell-based.
Assay [9] addresses T3, Acylglycerol kinase, mitochondrial (Homo sapiens) (UniProt Q53H12).
T3 sequence (whole entry): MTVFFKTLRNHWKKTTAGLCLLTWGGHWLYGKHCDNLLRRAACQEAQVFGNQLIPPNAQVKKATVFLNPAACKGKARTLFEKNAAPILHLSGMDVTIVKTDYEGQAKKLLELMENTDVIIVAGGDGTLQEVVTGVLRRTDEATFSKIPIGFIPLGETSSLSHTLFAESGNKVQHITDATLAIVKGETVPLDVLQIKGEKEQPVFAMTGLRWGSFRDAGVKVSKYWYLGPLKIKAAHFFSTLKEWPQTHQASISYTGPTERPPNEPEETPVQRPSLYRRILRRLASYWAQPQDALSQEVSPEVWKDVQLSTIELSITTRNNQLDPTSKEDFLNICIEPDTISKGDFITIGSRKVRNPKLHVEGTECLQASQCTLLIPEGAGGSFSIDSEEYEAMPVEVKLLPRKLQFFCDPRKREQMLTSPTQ
The assay is described as follows: Inhibition of AGK ATP labeling site in human Huh-7 cells at 1 uM by KiNativ Profiling analysis relative to control. The class given is cell-based.

The target in assay [10] is Tyrosine-protein kinase ABL1 (Homo sapiens, UniProt P00519). The assay can be described thus: Inhibition of ABL ACT labeling site in human Huh-7 cells at 1 uM by KiNativ Profiling analysis relative to control. Format: cell-based.
For assay [11], the target named is Mitogen-activated protein kinase kinase kinase kinase 4 (Homo sapiens, UniProt O95819). The assay can be described thus: Inhibition of ZC1/HGK Lys1 labeling site in human Huh-7 cell lysate at 1 uM by KiNativ Profiling analysis relative to control. The class given is subcellular.
Sequence of Mitogen-activated protein kinase kinase kinase kinase 4 (O95819 2-1239 limits assumed): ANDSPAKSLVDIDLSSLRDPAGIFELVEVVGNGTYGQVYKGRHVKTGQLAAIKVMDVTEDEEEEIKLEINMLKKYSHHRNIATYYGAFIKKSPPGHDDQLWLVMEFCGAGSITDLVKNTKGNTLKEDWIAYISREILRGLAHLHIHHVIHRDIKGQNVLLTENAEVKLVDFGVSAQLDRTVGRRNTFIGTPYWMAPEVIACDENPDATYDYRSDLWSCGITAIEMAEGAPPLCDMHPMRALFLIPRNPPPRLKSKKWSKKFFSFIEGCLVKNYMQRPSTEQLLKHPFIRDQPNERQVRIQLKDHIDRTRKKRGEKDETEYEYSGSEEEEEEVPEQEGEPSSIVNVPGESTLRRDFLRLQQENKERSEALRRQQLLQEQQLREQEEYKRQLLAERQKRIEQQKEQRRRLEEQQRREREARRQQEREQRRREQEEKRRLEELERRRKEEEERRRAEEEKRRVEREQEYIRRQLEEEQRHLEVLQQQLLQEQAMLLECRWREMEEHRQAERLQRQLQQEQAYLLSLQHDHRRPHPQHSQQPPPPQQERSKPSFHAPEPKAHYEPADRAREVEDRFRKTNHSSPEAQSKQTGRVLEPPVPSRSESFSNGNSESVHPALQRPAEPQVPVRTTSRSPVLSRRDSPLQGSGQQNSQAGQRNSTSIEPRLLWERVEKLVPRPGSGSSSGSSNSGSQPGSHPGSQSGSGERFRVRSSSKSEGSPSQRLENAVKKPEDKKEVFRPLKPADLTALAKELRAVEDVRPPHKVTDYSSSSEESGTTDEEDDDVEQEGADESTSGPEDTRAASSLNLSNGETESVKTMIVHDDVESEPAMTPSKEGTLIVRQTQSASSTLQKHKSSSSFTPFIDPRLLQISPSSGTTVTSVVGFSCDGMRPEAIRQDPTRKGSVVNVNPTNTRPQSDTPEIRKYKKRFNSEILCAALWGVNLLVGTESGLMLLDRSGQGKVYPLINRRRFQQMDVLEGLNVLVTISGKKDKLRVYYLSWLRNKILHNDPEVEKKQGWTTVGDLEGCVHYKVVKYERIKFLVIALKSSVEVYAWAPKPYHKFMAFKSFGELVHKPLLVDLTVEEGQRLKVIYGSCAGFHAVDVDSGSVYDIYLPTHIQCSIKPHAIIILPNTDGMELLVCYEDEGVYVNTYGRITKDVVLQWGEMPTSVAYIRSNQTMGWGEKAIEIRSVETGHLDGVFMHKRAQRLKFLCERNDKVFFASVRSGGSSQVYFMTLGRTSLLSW
In assay [12] the target is Dual specificity mitogen-activated protein kinase kinase 2 (Homo sapiens) (UniProt P36507). The assay can be described thus: Inhibition of MAP2K2 Lys2 labeling site in human Huh-7 cell lysate at 1 uM by KiNativ Profiling analysis relative to control. The class given is subcellular.
Sequence of Dual specificity mitogen-activated protein kinase kinase 2 (Homo sapiens) (P36507 whole entry): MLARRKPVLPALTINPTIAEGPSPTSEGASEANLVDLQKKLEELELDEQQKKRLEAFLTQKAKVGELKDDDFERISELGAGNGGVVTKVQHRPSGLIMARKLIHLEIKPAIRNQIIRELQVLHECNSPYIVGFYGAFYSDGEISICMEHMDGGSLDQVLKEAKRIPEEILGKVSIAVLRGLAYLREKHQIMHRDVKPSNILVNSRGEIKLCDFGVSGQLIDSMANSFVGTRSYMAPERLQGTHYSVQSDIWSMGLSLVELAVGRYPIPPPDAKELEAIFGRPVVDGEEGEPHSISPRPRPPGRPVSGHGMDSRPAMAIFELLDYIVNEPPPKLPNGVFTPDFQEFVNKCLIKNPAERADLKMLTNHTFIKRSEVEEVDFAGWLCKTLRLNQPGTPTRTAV
Assay [13] concerns the target Serine/threonine-protein kinase 38-like (Homo sapiens) (UniProt Q9Y2H1). The assay is described as follows: Inhibition of NDR2 Lys1 labeling site in human Huh-7 cell lysate at 1 uM by KiNativ Profiling analysis relative to control. The class given is subcellular.

The structures appear in SMILES notation. Active and inactive are the calls of the source. No cut-off for these calls is given here.

Sequence of Homeodomain-interacting protein kinase 1 (Homo sapiens) (Q86Z02 whole entry, looked up): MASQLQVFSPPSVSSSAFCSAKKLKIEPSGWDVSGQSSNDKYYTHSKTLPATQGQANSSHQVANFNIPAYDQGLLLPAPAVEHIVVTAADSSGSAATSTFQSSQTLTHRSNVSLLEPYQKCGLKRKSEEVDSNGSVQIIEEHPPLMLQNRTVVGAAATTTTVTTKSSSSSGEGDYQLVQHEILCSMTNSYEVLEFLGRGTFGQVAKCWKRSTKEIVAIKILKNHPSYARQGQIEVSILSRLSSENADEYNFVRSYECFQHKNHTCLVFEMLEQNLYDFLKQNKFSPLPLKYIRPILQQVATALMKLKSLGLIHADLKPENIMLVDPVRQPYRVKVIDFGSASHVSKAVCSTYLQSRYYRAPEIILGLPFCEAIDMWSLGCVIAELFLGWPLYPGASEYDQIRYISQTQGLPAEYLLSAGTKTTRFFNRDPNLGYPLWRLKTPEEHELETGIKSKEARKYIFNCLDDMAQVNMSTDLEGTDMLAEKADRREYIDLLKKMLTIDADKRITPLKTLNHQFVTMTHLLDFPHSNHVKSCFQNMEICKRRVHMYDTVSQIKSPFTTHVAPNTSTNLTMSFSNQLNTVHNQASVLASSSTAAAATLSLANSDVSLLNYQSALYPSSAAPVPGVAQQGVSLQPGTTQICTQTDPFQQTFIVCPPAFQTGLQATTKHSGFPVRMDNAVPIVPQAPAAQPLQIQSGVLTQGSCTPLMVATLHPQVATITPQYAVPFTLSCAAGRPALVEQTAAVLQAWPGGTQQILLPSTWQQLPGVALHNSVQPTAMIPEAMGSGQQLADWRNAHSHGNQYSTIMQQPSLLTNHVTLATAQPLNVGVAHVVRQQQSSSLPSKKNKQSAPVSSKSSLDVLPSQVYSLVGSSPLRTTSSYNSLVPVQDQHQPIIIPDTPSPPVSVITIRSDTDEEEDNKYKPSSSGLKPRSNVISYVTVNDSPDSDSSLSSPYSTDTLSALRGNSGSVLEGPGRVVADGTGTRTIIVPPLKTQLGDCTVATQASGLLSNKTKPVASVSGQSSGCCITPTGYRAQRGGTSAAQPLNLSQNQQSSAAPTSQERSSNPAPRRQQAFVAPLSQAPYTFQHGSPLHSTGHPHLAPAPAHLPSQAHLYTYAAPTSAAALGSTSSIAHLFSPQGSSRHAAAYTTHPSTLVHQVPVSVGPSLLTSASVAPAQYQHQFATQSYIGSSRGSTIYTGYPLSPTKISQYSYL
Sequence of Casein kinase I isoform epsilon (Homo sapiens) (P49674 whole entry, looked up, canonical isoform): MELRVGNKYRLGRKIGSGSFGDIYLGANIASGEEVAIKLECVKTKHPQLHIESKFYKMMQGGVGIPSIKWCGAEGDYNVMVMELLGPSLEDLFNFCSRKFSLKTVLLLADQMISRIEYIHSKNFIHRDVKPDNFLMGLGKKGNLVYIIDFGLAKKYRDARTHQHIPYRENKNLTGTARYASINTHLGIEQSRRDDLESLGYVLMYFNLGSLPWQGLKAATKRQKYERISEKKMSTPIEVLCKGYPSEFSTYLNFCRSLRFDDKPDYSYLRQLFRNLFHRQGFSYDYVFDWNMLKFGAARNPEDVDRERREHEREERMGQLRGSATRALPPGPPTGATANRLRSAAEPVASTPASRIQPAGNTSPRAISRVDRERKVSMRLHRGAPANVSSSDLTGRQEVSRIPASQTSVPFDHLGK

Take `CCN1CCN(Cc2ccc(NC(=O)c3ccc(C)c(/C=C/c4cnc5[nH]ccc5c4OC)c3)cc2C(F)(F)F)CC1`: the inhibition in assay [1] was -9.8%; in [2], 100%; in assay [3], 100%; in assay [4] it was -7%. The residual activity in [5] is 74%.

For `CCN1CCN(Cc2ccc(NC(=O)c3ccc(C)c(Oc4ccnc5[nH]ccc45)c3)cc2C(F)(F)F)CC1`, the inhibition entry in [6] and in assay [9] was “inactive” in each case. Moreover, the inhibition at 1 µM in assay [7] was -15.7%. For the same compound, the inhibition in assay [8] stood at 3.3%.

For the compound `CNc1cc(Oc2cc(C(=O)Nc3cc(N4CCN(C)CC4)cc(C(F)(F)F)c3)ccc2C)ncn1`, the inhibition in assay [10] was 31.6%; in assay [11], 0.3%; in assay [12], 15.6%; in assay [13], -6.7%.
